US11932850B2, “Cancer chemoprevention with STAT3 blockers” (Jill M. Siegfried, LLC, priority 2018, dated 2024)

How the values were obtained:
[1] = system: c-Myc in 201T-derived tumors; assay: c-Myc expression in 201T xenograft tumors (Western blot, RT-qPCR); format: in vivo, nude mice
[2] = system: Ki-67, p-STAT3, NF-κB in H1975 xenografts; assay: IHC of H1975 xenografts after 5 daily iv injections; format: in vivo, nude mice
Experimental: Because tumors treated for several weeks with the STAT3 decoy were largely composed of debris (as illustrated in FIG. 11), xenografts were examined after only 5 daily tail vein injections to determine what cellular changes were induced prior to collapse of the intracellular tumor structure. […] Tumors derived from H1975 xenografs were analyzed by immunohistochemical staining for p-STAT3 after 5 daily iv injections of either STAT3 decoy or mutant decoy. […] This effect is quantified in FIG. 9B.
Images were captured at 40× magnification. A shift from 41% of cells was observed and scored as high-grade staining with CS3M treatment to 13% with high-grade staining in the presence of CS3D, with corresponding increases in moderate- and low-grade staining in the STAT3 decoy treated group (FIG. 12B). […] Bright field images were captured at 40× magnification. Frequency of high-grade staining for p-STAT3 differed between CS3D and CS3M treatment groups (23% in CS3D-treated and 51% in CS3M treated, with corresponding increase in low-grade staining in presence of the active decoy (FIG. 9B). Significant degradation of p-STAT3 protein was detected by IHC in tumors was observed after treatment with CS3D. Percent of high staining fields was reduced from 48% to 22% while percent of fields with low staining increased, P<0.001 (FIG. 9B).
Immunohistochemical analysis: Tumors were excised for immunohistochemical (IHC) staining; 5-μm (micron) sections were cut from formalin-fixed paraffin-embedded tissue blocks, deparaffinized and rehydrated using successive washes of xylene followed by ethanol. Antigen retrieval was performed in a microwave oven (for 20 minutes) in an unmasking solution containing sodium citrate buffer followed by peroxidase blocking in 3% hydrogen peroxide. The sections were incubated in ABC blocking buffer (Vector laboratories Inc, Burlingame, California) for 1 hour at room temperature. Sections were then stained with H&E (hematoxylin and eosin) or subjected to sequential incubations with different primary antibodies and peroxidase-conjugated goat anti-rabbit secondary antibodies. The following primary antibodies were used (at the indicated dilutions): cleaved caspase-3 (#9664, Cell Signaling, 1:300), p-STAT3 (#9145, Cell Signaling, 1:400), Ki67 (#ab15580, Abcam, 1:1000). Sections were developed with DAB and counterstained with hematoxylin. Bright field microscopy was performed using Leica DM 4000 B LED microscope and images were captured at 20× and 40× magnification using LASv4.7 software. IHC analysis was done as a blinded study with 100 images from each treatment group graded as low, moderate, or high. Staining was graded as low (<30% positive cells per field, scored as 1), moderate (30-60% positive cells per field, scored as 2) or high (>60% positive cells per field, scored as 3).

[3] = system: p-STAT3, p-NFkB, VEGF, CD31, IL-6, COX2 in lungs
[4] = system: c-Myc protein in H1975 cells; conditions: H1975, 3 hr after EGF
Experimental: (§1) c-Myc is a STAT3 target gene that is known to be activated by EGF treatment. To investigate the effects of STAT3 blockade on c-Myc expression, cells were first treated with 10 ng/ml EGF for 1.5 hr (deemed the optimal time to observe increased c-Myc RNA), 24 hr after transfection of the cyclic oligonucleotides. RT-qPCR was used to assess differences in mRNA expression in STAT3 decoy-treated versus mutant decoy-treated cells (FIGS. 5A and 5B). […] Cells were treated 24 hours post-transfection with EGF (10 ng/ml) for 1.5 hr and mRNA was harvested from wild-type (A) and mutant EGFR T790M (B) NSCLC cell lines, and mRNA expression was assessed by RT-qPCR. Relative mRNA expression was normalized to GAPDH mRNA levels as an internal control. Statistical significance was determined as *P<0.05. […] Cells were treated 24 hours post-transfection with EGF (10 ng/ml) for 1.5 hr and mRNA was harvested from mutant EGFR T790M (B) NSCLC cell lines. […] Cells were is treated as in FIGS. 5A and 5B, and 3 hr after EGF treatment, lysates were collected from wild-type 201T (left) and mutant EGFR […] H1975 (right) NSCLC cell lines.

[5] = system: c-Myc protein in 201T cells; conditions: 3 hr after EGF, compared to CS3M or lipofectamine alone
Experimental: as §1

[6] = system: STAT1 target genes (IKBKE, IFT2, IFT1, IRF7) and NFκB target genes; conditions: CS3D compared to CS3M treated cells
Experimental: as §1

[7] = 8 weeks post-treatment, vs CS3M

**Q.** Which results are given for “CS3D (DNA GATTTACGGGAAATGCSCATTTCCC; cyclic decoy with two hexaethylene glycol linkers, further chemistry not given here)”?
**A.** mean decrease of c-Myc protein ([1]; 201T xenografts, CS3D vs CS3M): 70%; reduction of c-Myc gene expression (mRNA) relative to GAPDH ([1]; tumor lysates of 201T and H1975 xenografts (FIG. 7E), compared to CS3M): 60-70%; Ki-67 high-grade staining ([2]; H1975 xenografts, 5 daily injections): 13%; frequency of high-grade staining for p-STAT3 ([2]; H1975 xenografts, 5 daily iv injections): 23%; percent of high staining fields for p-STAT3 ([2]; H1975 xenografts, second statement in b134 (FIG. 9B)): 22%; induction of apoptosis at early time point ([2]; after 5 daily injections (not shown)): no induction of apoptosis; NF-κB nuclear protein ([2]; after five days of treatment): No change; IL-6 levels in the airways ([3]; 8 weeks after completion of therapy, vs CS3M): upregulated; COX-2 expression ([3]; 8 weeks after end of treatment, vs CS3M): increase; VEGF staining in the airways [3, 7]: decrease; activated phospho-STAT3 protein [3, 7]: long-term reduction; phospho-NF-kB activation [3, 7]: decrease; endothelial marker CD31 expression ([3]; premalignant stage, data not shown): suppresses; reduction in c-Myc protein expression [4]: 40%; reduction in c-Myc protein expression [5]: 31%; mRNA expression of STAT1 and NFκB target genes [6]: no decrease in mRNA expression level
